{"source": "patent US8053461B2", "about": "“Oxindole derivative” (Theravalues Corporation, priority 2006, dated 2011)", "key": {"[1]": {"tested_on": "esophageal squamous cell carcinoma cell line (T.Tn)", "test": "Cytotoxicity, MTS method", "assay_type": "cell-based", "procedure": "(§1) Various cancer cell lines were seeded in 96-well plates at a density of 3 to 5000 cells per well, and on the following day, any of the novel compounds was added thereto such that the final concentrations of the compounds were 0 to 100 μM (the concentration of the solvent DMSO was 0.5%) and the plates were incubated for 24 to 72 hours. The cytotoxicity to cancer cells can be examined by calculating the viable cell count by the MTS method (CellTiter 96 Aqueous One Solution Cell Proliferation Assay, Promega) after incubation. Here, the MTS method is a viable cell count calculation method using the fact that a tetrazolium compound (MTS) is converted into a chromogenic formazan product by an oxidoreductase of viable cells. In the measurement method, to each well of a 96-well plate containing 100 μl of a culture medium and sample cells, 20 μl of CellTiter 96 Aqueous One Solution Reagent is added and the plate was incubated in an incubator at 37° C. for 90 to 120 minutes, and then, the absorbance at 490 nm is measured using a 96-well plate reader."}, "[2]": {"tested_on": "pancreatic cancer cell line (MiaPaCa-2)", "test": "Cytotoxicity, MTS method", "assay_type": "cell-based", "settings": "at 100 μM and 10 μM, even at 1 μM to some cell lines, FIG. 2", "procedure": "as §1"}, "[3]": {"tested_on": "lung cancer cell line (A549)", "test": "Cytotoxicity, MTS method", "assay_type": "cell-based", "procedure": "as §1"}, "[4]": {"tested_on": "uterine cancer cell line (HeLa)", "test": "Cytotoxicity, MTS method", "assay_type": "cell-based", "settings": "at 100 μM and 10 μM, even at 1 μM to some cell lines, FIG. 2", "procedure": "as §1"}, "[5]": {"tested_on": "normal renal cell line (293)", "test": "Cytotoxicity, MTS method", "assay_type": "cell-based", "settings": "at 100 μM and 10 μM, even at 1 μM to some cell lines, FIG. 2", "procedure": "as §1"}, "[6]": {"tested_on": "oral squamous cell carcinoma cell line (HSC-3)", "test": "Cytotoxicity, MTS method", "assay_type": "cell-based", "settings": "at 100 μM and 10 μM, even at 1 μM to some cell lines, FIG. 2", "procedure": "as §1"}, "[7]": {"tested_on": "prostate cancer cell line (PC-3)", "test": "Cytotoxicity, MTS method, time course", "assay_type": "cell-based", "settings": "time course observation of viable cell count, FIG. 3", "procedure": "as §1"}, "[8]": {"biological_target": "T1, recombinant GST-Pim-1 kinase (Homo sapiens, UniProt P11309)", "T1 construct": "GST", "T1 sequence (P11309 whole entry)": "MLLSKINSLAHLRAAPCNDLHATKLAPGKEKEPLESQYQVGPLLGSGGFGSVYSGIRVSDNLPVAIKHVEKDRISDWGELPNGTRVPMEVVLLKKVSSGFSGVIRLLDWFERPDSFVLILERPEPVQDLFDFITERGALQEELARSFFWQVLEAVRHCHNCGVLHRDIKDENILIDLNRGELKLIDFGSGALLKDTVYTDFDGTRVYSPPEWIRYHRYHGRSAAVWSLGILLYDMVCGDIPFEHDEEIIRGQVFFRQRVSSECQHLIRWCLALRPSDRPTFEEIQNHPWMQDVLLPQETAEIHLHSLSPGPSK", "test": "In vitro system for measurement of Pim-1 kinase activity (phosphorylation of biotinylated p21 peptide, OD450)", "assay_type": "biochemical", "settings": "ATP 10 μM, 25° C., 30 minutes; read-out: 50% inhibitory concentration (IC50) of Pim-1 kinase activity", "procedure": "The sensitivity (IC50: inhibitory concentration of 50% of activity) and concentration dependence of these novel compounds to inhibition of Pim-1 activity were studied (using the following system).\nIn Vitro System for Measurement of Pim-1 Kinase Activity:\n(1) Add a biotinylated p21 peptide (1 mM) as a substrate to be phosphorylated by Pim-1 and a recombinant GST-Pim-1 kinase (18 μg/ml) to a kinase buffer.\n(2) Add a test compound (dissolved in 2% DMSO) or 2% DMSO (a solvent control) thereto.\n(3) Add ATP (10 μM) thereto and incubate the mixture at 25° C. for 30 minutes (initiate a kinase reaction).\n(4) Add EDTA (10 mM) thereto to stop the reaction.\n(5) Add 10 μl of the kinase reaction mixture to a 96-well plate (which has been blocked in advance) coated with avidin, and incubate the plate at room temperature for 60 minutes.\n(6) Wash the wells with a washing buffer three times.\n(7) Add a diluted solution (1:500) of an antibody which recognizes phosphorylated p21 (Thr145) to the wells in an amount of 100 μl per well and incubate the plate for 90 minutes.\n(8) Wash the wells with a washing buffer three times.\n(9) Add a diluted solution (1:2000) of a secondary antibody which […] to the wells in an amount of 100 μl per well and incubate the plate for 60 minutes.\n(10) Wash the wells with a washing buffer five times.\n(11) Add a substrate (TMB) for peroxidase to the wells and incubate the plate for 8 minutes. Then, stop the reaction with 2 M H2SO4 and perform the colorimetric determination using a microplate reader (OD450)."}, "[9]": {"tested_on": "pancreatic cancer cell line (BxPC-3)", "test": "Cytotoxicity, MTS method, time course", "assay_type": "cell-based", "settings": "FIG. 4", "procedure": "as §1"}}, "note": "Counter-ions that a name gives are not always drawn."}
{"smiles": "O=C1Nc2ccccc2/C1=C\\c1ccc(/C=C2/C(=O)Nc3ccccc32)o1", "note": "[compound (1), (3E)-3[(5-((E)-(2-oxoindolin-3-ylidene)methyl)furan-2-yl)methylene]indoline-2-one]", "values": [{"measurement": "cytotoxicity", "setting": "[1]; T.Tn, at 100 μM and 10 μM, even at 1 μM to some cell lines, FIG. 2", "result": "remarkable cytotoxicity"}, {"measurement": "cytotoxicity", "setting": "[2]", "result": "remarkable cytotoxicity"}, {"measurement": "cytotoxicity", "setting": "[3]; A549, at 100 μM and 10 μM, even at 1 μM to some cell lines, FIG. 2", "result": "remarkable cytotoxicity"}, {"measurement": "cytotoxicity", "setting": "[4]", "result": "remarkable cytotoxicity"}, {"measurement": "cytotoxicity", "setting": "[5]", "result": "remarkable cytotoxicity"}, {"measurement": "cytotoxicity", "setting": "[6]", "result": "remarkable cytotoxicity"}, {"measurement": "cell lethal effect", "setting": "[7]", "result": "has a cell lethal effect"}, {"measurement": "IC50", "setting": "[8]", "result": 50, "unit": "nM"}]}
{"smiles": "CC(=O)N1C(=O)/C(=C/c2ccc(/C=C3/C(=O)N(C(C)=O)c4ccccc43)o2)c2ccccc21", "note": "[compound (2), (3E)-1-acetyl-3-[((5E)-((1-acetyl-2-oxoindolin-3-ylidene)methyl)furan-2-yl)methylene]indolin-2-one]", "values": [{"measurement": "cell proliferation inhibitory effect and cell lethal effect", "setting": "[1]; esophageal squamous cell carcinoma cell line (T.Tn), time course, FIG. 4", "result": "has a cell proliferation inhibitory effect and a cell lethal effect"}, {"measurement": "cell proliferation inhibitory effect and cell lethal effect", "setting": "[3]; lung cancer cell line (A549), time course, FIG. 4", "result": "has a cell proliferation inhibitory effect and a cell lethal effect"}, {"measurement": "cell proliferation inhibitory effect and cell lethal effect", "setting": "[9]", "result": "has a cell proliferation inhibitory effect and a cell lethal effect"}, {"measurement": "IC50", "setting": "[8]", "result": 10, "unit": "nM"}]}
{"smiles": "CC(=O)N1C(=O)/C(=C/c2ccc(/C=C3/C(=O)Nc4ccccc43)o2)c2ccccc21", "note": "[compound (3), (3E)-3-((5-((E)-(1-acetyl-2-oxoindolin-3-ylidene)methyl)furan-2-yl)methylene)indolin-2-one]", "values": [{"measurement": "IC50", "setting": "[8]", "result": 800, "unit": "nM"}]}
{"smiles": "CCCC(=O)N1C(=O)/C(=C/c2ccc(/C=C3/C(=O)N(C(=O)CCC)c4ccccc43)o2)c2ccccc21", "note": "[compound (7), (3E)-1-butyryl-3-[((5E)-((1-butyryl-2-oxoindolin-3-ylidene)methyl)furan-2-yl)methylene]indolin-2-one]", "values": [{"measurement": "IC50", "setting": "[8]", "result": 26, "unit": "nM"}]}
{"smiles": "CC(=O)N1C(=O)/C(=C/c2ccc(/C=C3/C(=O)Nc4ccc(C(=O)O)cc43)o2)c2ccccc21", "note": "[compound (9), (3E)-3-((5-((E)-(1-acetyl-2-oxoindolin-3-ylidene)methyl)furan-2-yl)methylene)-2-oxoindoline-5-carboxylic acid sodium salt]", "values": [{"measurement": "IC50", "setting": "[8]", "result": 1400, "unit": "nM"}]}
{"smiles": "CC(=O)N1C(=O)/C(=C/c2ccc(/C=C3/C(=O)Nc4cc(C(=O)O)ccc43)o2)c2ccccc21", "note": "[compound (10), (3E)-3-((5-((E)-(1-acetyl-2-oxoindolin-3-ylidene)methyl)furan-2-yl)methylene)-2-oxoindoline-6-carboxylic acid sodium salt]", "values": [{"measurement": "IC50", "setting": "[8]", "result": 580, "unit": "nM"}]}
